Target: Human factor D (Homo sapiens (Human), UniProt P00746)
Assay: Human Factor D Assay
Assay type: biochemical
Details: human factor D 80 nM, substrate Z-L-Lys-SBzl, DTNB
Procedure: Human factor D (purified from human serum, Complement Technology, Inc.) at 80 nM final concentration is incubated with test compound at various concentrations for 5 minutes at room temperature in 50 mM Tris, 1M NaCl, pH 7.5. A synthetic substrate Z-L-Lys-SBzl and DTNB (Ellman's reagent) are added to final concentrations of 100 μM each. The increase in color is recorded at OD405 nm in a microplate in kinetic mode over 30 minutes with 30 second time points in a spectrofluorimeter. IC50 values are calculated by non-linear regression from the percentage of inhibition of complement factor D activity as a function of test compound concentration.

Sequence of Human factor D (P00746 26-253): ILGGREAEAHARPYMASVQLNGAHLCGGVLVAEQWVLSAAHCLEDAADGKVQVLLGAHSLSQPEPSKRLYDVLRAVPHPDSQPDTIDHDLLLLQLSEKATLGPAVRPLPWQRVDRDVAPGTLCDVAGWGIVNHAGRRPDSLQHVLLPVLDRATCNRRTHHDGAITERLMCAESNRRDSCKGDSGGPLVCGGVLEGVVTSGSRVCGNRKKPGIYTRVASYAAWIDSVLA

NCc1ccc(NC(=O)[C@@H]2C[C@@H](F)CN2C(=O)Cn2nc(C(N)=O)c3cc(-c4ccnnc4)ccc32)cc1 [Compound 70, 1-(2-((2S,4R)-2-(4-(aminomethyl)phenylcarbamoyl)-4-fluoropyrrolidin-1-yl)-2-oxoethyl)-5-(pyridazin-4-yl)-1H-indazole-3-carboxamide]
IC50: > 10 µM

Cc1ccnn1-c1ccccc1NC(=O)[C@@H]1C[C@@H](F)CN1C(=O)Cn1nc(C(N)=O)c2cc(-c3ccnnc3)ccc21 [Compound 71, 1-(2-((2S,4R)-4-fluoro-2-(2-(5-methyl-1H-pyrazol-1-yl)phenylcarbamoyl)pyrrolidin-1-yl)-2-oxoethyl)-5-(pyridazin-4-yl)-1H-indazole-3-carboxamide]
IC50: > 10 µM

CC(=O)c1cn(CC(=O)N2C[C@H](F)C[C@H]2C(=O)Nc2ccccc2-n2nccc2C)c2ccc(-c3ccnnc3)cc12 [Compound 72, (2S,4R)-1-(2-(3-acetyl-5-(pyridazin-4-yl)-1H-indol-1-yl)acetyl)-4-fluoro-N-(2-(5-methyl-1H-pyrazol-1-yl)phenyl)pyrrolidine-2-carboxamide]
IC50: > 10 µM

NC(=O)c1nn(CC(=O)N2C[C@H](F)C[C@H]2C(=O)Nc2cccc(OCc3ccccc3)n2)c2ccc(-c3ccnnc3)cc12 [Compound 73, 1-(2-((2S,4R)-2-(6-(benzyloxy)pyridin-2-ylcarbamoyl)-4-fluoropyrrolidin-1-yl)-2-oxoethyl)-5-(pyridazin-4-yl)-1H-indazole-3-carboxamide]
IC50: > 10 µM

CC(=O)c1cn(CC(=O)N2C[C@H](F)C[C@H]2C(=O)N[C@H]2CCCC[C@@H]2OCc2ccccc2)c2ccc(-c3ccnnc3)cc12 [Compound 74, (2S,4R)-1-(2-(3-acetyl-5-(pyridazin-4-yl)-1H-indol-1-yl)acetyl)-N-((1S,2S)-2-(benzyloxy)cyclohexyl)-4-fluoropyrrolidine-2-carboxamide]
IC50: > 10 µM

CC(=O)c1cn(CC(=O)N2C[C@H](F)C[C@H]2C(=O)Nc2ccc3c(c2)OC(C)(C)C3)c2ccc(-c3ccnnc3)cc12 [Compound 75, (2S,4R)-1-(2-(3-acetyl-5-(pyridazin-4-yl)-1H-indol-1-yl)acetyl)-N-(2,2-dimethyl-2,3-dihydrobenzofuran-6-yl)-4-fluoropyrrolidine-2-carboxamide]
IC50: < 1 µM

CC1(C)Cc2ccc(NC(=O)[C@@H]3C[C@@H](F)CN3C(=O)Cn3nc(C(N)=O)c4cc(-c5ccnnc5)ccc43)cc2O1 [Compound 76, 1-(2-((2S,4R)-2-(2,2-dimethyl-2,3-dihydrobenzofuran-6-ylcarbamoyl)-4-fluoropyrrolidin-1-yl)-2-oxoethyl)-5-(pyridazin-4-yl)-1H-indazole-3-carboxamide]
IC50: < 1 µM

CC(=O)c1cn(CC(=O)N2C[C@H](F)C[C@H]2C(=O)N[C@H]2CCC[C@@H]2OCc2ccccc2)c2ccc(-c3ccnnc3)cc12 [Compound 77, (2S,4R)-1-(2-(3-acetyl-5-(pyridazin-4-yl)-1H-indol-1-yl)acetyl)-N-((1S,2S)-2-(benzyloxy)cyclopentyl)-4-fluoropyrrolidine-2-carboxamide]
IC50: > 10 µM

NC(=O)c1nn(CC(=O)N2C[C@H](F)C[C@H]2C(=O)N[C@H]2CCCC[C@@H]2OCc2ccccc2)c2ccc(-c3ccnnc3)cc12 [Compound 78]
IC50: > 10 µM

CNC(=O)[C@@H]1C[C@@H](F)CN1C(=O)Cn1nc(C(N)=O)c2cc(-c3ccnnc3)ccc21 [Compound 79, 1-(2-((2S,4R)-4-fluoro-2-(methylcarbamoyl)pyrrolidin-1-yl)-2-oxoethyl)-5-(pyridazin-4-yl)-1H-indazole-3-carboxamide]
IC50: > 10 µM

COc1ncc(-c2ccc3c(c2)c(C(C)=O)cn3CC(=O)N2[C@@H]3C[C@@H]3C[C@H]2C(=O)Nc2cccc(-c3ccccc3Cl)c2F)cn1 [Compound 80, (1R,3S,5R)-2-(2-(3-acetyl-5-(2-methoxypyrimidin-5-yl)-1H-indol-1-yl)acetyl)-N-(2′-chloro-2-fluorobiphenyl-3-yl)-2-azabicyclo[3.1.0] hexane-3-carboxamide]
IC50: < 1 µM

COc1ncc(-c2ccc3c(c2)c(C(C)=O)cn3CC(=O)N2[C@@H]3C[C@@H]3C[C@H]2C(=O)Nc2cccc(Br)n2)cn1 [Compound 81, (1R,3S,5R)-2-(2-(3-acetyl-5-(2-methoxypyrimidin-5-yl)-1H-indol-1-yl)acetyl)-N-(6-bromopyridin-2-yl)-2-azabicyclo[3.1.0] hexane-3-carboxamide]
IC50: < 1 µM

CC(=O)c1cn(CC(=O)N2C[C@H](F)C[C@H]2C(=O)Nc2cccc(Br)n2)c2ccc(-c3cnc(C#N)nc3)cc12 [Compound 82, (2S,4R)-1-(2-(3-acetyl-5-(2-cyanopyrimidin-5-yl)-1H-indol-1-yl)acetyl)-N-(6-bromopyridin-2-yl)-4-fluoropyrrolidine-2-carboxamide]
IC50: < 1 µM

CC(=O)c1cn(CC(=O)N2C[C@H](F)C[C@H]2C(=O)Nc2cccc(Br)n2)c2ccc(-c3cnc(F)nc3)cc12 [Compound 83, (2S,4R)-1-(2-(3-acetyl-5-(2-fluoropyrimidin-5-yl)-1H-indol-1-yl)acetyl)-N-(6-bromopyridin-2-yl)-4-fluoropyrrolidine-2-carboxamide]
IC50: < 1 µM

CC(=O)c1cn(CC(=O)N2C[C@H](F)C[C@H]2C(=O)Nc2cccc(Br)n2)c2ccc(-c3cnc(C)nc3)cc12 [Compound 84, (2S,4R)-1-(2-(3-acetyl-5-(2-methylpyrimidin-5-yl)-1H-indol-1-yl)acetyl)-N-(6-bromopyridin-2-yl)-4-fluoropyrrolidine-2-carboxamide]
IC50: < 1 µM

CC(=O)c1cn(CC(=O)N2C[C@H](F)C[C@H]2C(=O)Nc2ccc(CN)cc2)c2ccc(-c3ccnnc3)cc12 [Compound 85, (2S,4R)-1-(2-(3-acetyl-5-(pyridazin-4-yl)-1H-indol-1-yl)acetyl)-N-(4-(aminomethyl)phenyl)-4-fluoropyrrolidine-2-carboxamide]
IC50: > 10 µM

NC(=O)c1nn(CC(=O)N2C[C@H](F)C[C@H]2C(=O)Nc2ccc3cn[nH]c3c2)c2ccc(-c3ccnnc3)cc12 [Compound 86, 1-(2-((2S,4R)-2-(1H-indazol-6-ylcarbamoyl)-4-fluoropyrrolidin-1-yl)-2-oxoethyl)-5-(pyridazin-4-yl)-1H-indazole-3-carboxamide]
IC50: > 10 µM

CC(=O)c1cn(CC(=O)N2C[C@H](F)C[C@H]2C(=O)Nc2cncc(Cl)n2)c2ccc(-c3ccnnc3)cc12 [Compound 88, (2S,4R)-1-(2-(3-acetyl-5-(pyridazin-4-yl)-1H-indol-1-yl)acetyl)-N-(6-chloropyrazin-2-yl)-4-fluoropyrrolidine-2-carboxamide]
IC50: < 1 µM

NC(=O)c1nn(CC(=O)N2C[C@H](F)C[C@H]2C(=O)Nc2cncc(Cl)n2)c2ccc(-c3ccnnc3)cc12 [Compound 89, 1-(2-((2S,4R)-2-(6-chloropyrazin-2-ylcarbamoyl)-4-fluoropyrrolidin-1-yl)-2-oxoethyl)-5-(pyridazin-4-yl)-1H-indazole-3-carboxamide]
IC50: < 1 µM

NC(=O)c1nn(CC(=O)N2C[C@H](F)C[C@H]2C(=O)Nc2ccc(F)c(-c3nnc4n3CCCCC4)c2)c2ccc(-c3ccnnc3)cc12 [Compound 91, 1-(2-((2S,4R)-4-fluoro-2-(4-fluoro-3-(6,7,8,9-tetrahydro-5H-[1,2,4]triazolo[4,3-a]azepin-3-yl)phenylcarbamoyl)pyrrolidin-1-yl)-2-oxoethyl)-5-(pyridazin-4-yl)-1H-indazole-3-carboxamide]
IC50: > 10 µM

NC(=O)c1nn(CC(=O)N2C[C@H](F)C[C@H]2C(=O)Nc2cccc(Cl)c2C(F)(F)F)c2ccc(-c3ccnnc3)cc12 [Compound 93, 1-(2-((2S,4R)-2-(3-chloro-2-(trifluoromethyl)phenylcarbamoyl)-4-fluoropyrrolidin-1-yl)-2-oxoethyl)-5-(pyridazin-4-yl)-1H-indazole-3-carboxamide]
IC50: > 10 µM

NC(=O)c1nn(CC(=O)N2C[C@H](F)C[C@H]2C(=O)Nc2c[nH]nc2-c2ccc(Cl)cc2Cl)c2ccc(-c3ccnnc3)cc12 [Compound 94, 1-(2-((2S,4R)-2-(3-(2,4-dichlorophenyl)-1H-pyrazol-4-ylcarbamoyl)-4-fluoropyrrolidin-1-yl)-2-oxoethyl)-5-(pyridazin-4-yl)-1H-indazole-3-carboxamide]
IC50: > 10 µM

CC(=O)c1cn(CC(=O)N2C[C@H](F)C[C@H]2C(=O)Nc2cccc(Cl)c2-n2cncn2)c2ccc(-c3ccnnc3)cc12 [Compound 95, (2S,4R)-1-(2-(3-acetyl-5-(pyridazin-4-yl)-1H-indol-1-yl)acetyl)-N-(3-chloro-2-(1H-1,2,4-triazol-1-yl)phenyl)-4-fluoropyrrolidine-2-carboxamide]
IC50: > 10 µM

NC(=O)c1nn(CC(=O)N2C[C@H](F)C[C@H]2C(=O)Nc2cccc(Cl)c2-n2cncn2)c2ccc(-c3ccnnc3)cc12 [Compound 96, 1-(2-((2S,4R)-2-(3-chloro-2-(1H-1,2,4-triazol-1-yl)phenylcarbamoyl)-4-fluoropyrrolidin-1-yl)-2-oxoethyl)-5-(pyridazin-4-yl)-1H-indazole-3-carboxamide]
IC50: > 10 µM

CC(=O)c1cn(CC(=O)N2C[C@H](F)C[C@H]2C(=O)Nc2cc(C)nc3nc(C(F)(F)F)nn23)c2ccc(-c3ccnnc3)cc12 [Compound 97, (2S,4R)-1-(2-(3-acetyl-5-(pyridazin-4-yl)-1H-indol-1-yl)acetyl)-4-fluoro-N-(5-methyl-2-(trifluoromethyl)-[1,2,4]triazolo[1,5-a]pyrimidin-7-yl)pyrrolidine-2-carboxamide]
IC50: > 10 µM

Cn1cnnc1-c1ccccc1NC(=O)[C@@H]1C[C@@H](F)CN1C(=O)Cn1nc(C(N)=O)c2cc(-c3ccnnc3)ccc21 [Compound 98, 1-(2-((2S,4R)-4-fluoro-2-(2-(4-methyl-4H-1,2,4-triazol-3-yl)phenylcarbamoyl)pyrrolidin-1-yl)-2-oxoethyl)-5-(pyridazin-4-yl)-1H-indazole-3-carboxamide]
IC50: > 10 µM

From patent US9796741B2 (Achillion Pharmaceuticals, Inc., priority 2014, dated 2017)
